{"source": "patent US8394952B2", "about": "(Vertex Pharmaceuticals Incorporated, priority 2006, dated 2013)", "data": [{"target": "Plk1 (Homo sapiens, UniProt P53350)", "sequence (P53350 20-338)": "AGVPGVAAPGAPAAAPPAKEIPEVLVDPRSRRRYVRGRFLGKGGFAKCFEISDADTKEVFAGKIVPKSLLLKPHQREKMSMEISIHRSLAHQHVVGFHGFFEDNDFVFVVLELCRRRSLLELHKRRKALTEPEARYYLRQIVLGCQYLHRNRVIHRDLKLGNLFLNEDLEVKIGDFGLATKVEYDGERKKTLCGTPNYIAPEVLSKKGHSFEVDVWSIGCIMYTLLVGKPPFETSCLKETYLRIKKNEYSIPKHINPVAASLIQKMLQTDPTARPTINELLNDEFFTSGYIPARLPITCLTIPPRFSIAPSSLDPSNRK", "test": "biochemical", "units": {"Ki": "nM"}, "values": [{"smiles": "CN1C(=O)C(C)(C)CN(C2CCCC2)c2nc(Nc3ccc(NC(=O)C(F)(F)F)cc3)ncc21", "note": "[Compound I-78, N-(4-(9-cyclopentyl-6,7,8,9-tetrahydro-5,7,7-trimethyl-6-oxo-5H-pyrimido[4,5-b][1,4]diazepin-2-ylamino)phenyl)-2,2,2-trifluoroacetamide]", "Ki": "10 to 100"}, {"smiles": "CN1C(=O)C(C)(C)CN(C2CCCC2)c2nc(Nc3cccc(NC(=O)c4ccccc4)c3)ncc21", "note": "[Compound I-154, N-(3-(9-cyclopentyl-6,7,8,9-tetrahydro-5,7,7-trimethyl-6-oxo-5H-pyrimido[4,5-b][1,4]diazepin-2-ylamino)phenyl)benzamide]", "Ki": "10 to 100"}, {"smiles": "COc1cc(C(=O)N[C@H]2CC[C@H](OC(C)=O)CC2)ccc1Nc1ncc2c(n1)N(C1CCCC1)CC(C)(C)C(=O)N2C", "note": "[Compound I-280, (1r,4r)-4-(4-(9-cyclopentyl-5,7,7-trimethyl-6-oxo-6,7,8,9-tetrahydro-5H-pyrimido[4,5-b][1,4]diazepin-2-ylamino)-3-methoxybenzamido)cyclohexyl acetate]", "Ki": "< 10"}, {"smiles": "CN1C(=O)C(C)(C)CN(C2CCCC2)c2nc(Nc3ccc4c(cnn4C)c3)ncc21", "note": "[Compound I-110, 2-(1-methyl-1H-indazol-5-ylamino)-9-cyclopentyl-8,9-dihydro-5,7,7-trimethyl-5H-pyrimido[4,5-b][1,4]diazepin-6(7H)-one]", "Ki": "10 to 100"}, {"smiles": "COc1cc(C(=O)NCC2CCC2)ccc1Nc1ncc2c(n1)N(C1CCCC1)CC(C)(C)C(=O)N2C", "note": "[Compound I-246, N-(cyclobutylmethyl)-4-(9-cyclopentyl-5,7,7-trimethyl-6-oxo-6,7,8,9-tetrahydro-5H-pyrimido[4,5-b][1,4]diazepin-2-ylamino)-3-methoxybenzamide]", "Ki": "< 10"}, {"smiles": "CNC(=O)c1ccc(Nc2ncc3c(n2)N(C2CCC2)CC(C)(C)C(=O)N3C)c(OC)c1", "note": "[Compound I-167, 4-(9-cyclobutyl-6,7,8,9-tetrahydro-5,7,7-trimethyl-6-oxo-5H-pyrimido[4,5-b][1,4]diazepin-2-ylamino)-3-methoxy-N-methylbenzamide]", "Ki": "< 10"}, {"smiles": "COCCNC(=O)c1cccc(Nc2ncc3c(n2)N(C2CCCC2)CC(C)(C)C(=O)N3C)c1", "note": "[Compound I-144, 3-(9-Cyclopentyl-6,7,8,9-tetrahydro-5,7,7-trimethyl-6-oxo-5H-pyrimido[4,5-b][1,4]diazepin-2-ylamino)-N-(2-methoxyethyl)benzamide]", "Ki": "10 to 100"}, {"smiles": "COc1cc(C(=O)NC2CN(C(C)C)C2)ccc1Nc1ncc2c(n1)N(C1CCCC1)CC(C)(C)C(=O)N2C", "note": "[Compound I-52, 4-(9-cyclopentyl-6,7,8,9-tetrahydro-5,7,7-trimethyl-6-oxo-5H-pyrimido[4,5-b][1,4]diazepin-2-ylamino)-N-(1-isopropylazetidin-3-yl)-3-methoxybenzamide]", "Ki": "< 10"}, {"smiles": "CNC(=O)c1ccc(Nc2ncc3c(n2)N(C2CCCC2)[C@@H]2CCC[C@@H]2C(=O)N3C)c(OC)c1", "note": "[Compound I-15, 4-((3aR,10aS)-4-cyclopentyl-9-methyl-10-oxo-1,2,3,3a,4,9,10,10a-octahydro-4,5,7,9-tetraaza-benzo[f]azulen-6-ylamino)-3-methoxy-N-methylbenzamide]", "Ki": "10 to 100"}, {"smiles": "CNC(=O)c1ccc(Nc2ncc3c(n2)N([C@@H]2CCOC2)CC(C)(C)C(=O)N3C)c(OC)c1", "note": "[Compound I-181, 4-(6,7,8,9-tetrahydro-9-((R)-tetrahydrofuran-3-yl)-5,7,7-trimethyl-6-oxo-5H-pyrimido[4,5-b][1,4]diazepin-2-ylamino)-3-methoxy-N-methylbenzamide]", "Ki": "< 10"}, {"smiles": "COc1cc(C(=O)NCC2(O)CCCCC2)ccc1Nc1ncc2c(n1)N(C1CCCC1)CC(C)(C)C(=O)N2C", "note": "[Compound I-205, 4-(9-cyclopentyl-5,7,7-trimethyl-6-oxo-6,7,8,9-tetrahydro-5H-pyrimido[4,5-b][1,4]diazepin-2-ylamino)-N-((1-hydroxycyclohexyl)methyl)-3-methoxy-benzamide]", "Ki": "< 10"}, {"smiles": "COc1cc(C(=O)N[C@H]2CCOC2)ccc1Nc1ncc2c(n1)N(C1CCCC1)C[C@@H](C)C(=O)N2C", "note": "[Compound I-183, 4-((R)-9-cyclopentyl-5,7-dimethyl-6-oxo-6,7,8,9-tetrahydro-5H-pyrimido[4,5-b][1,4]diazepin-2-ylamino)-3-methoxy-N—((S)-tetrahydrofuran-3-yl)benzamide]", "Ki": "< 10"}, {"smiles": "CC[C@H]1CN(C2CCCC2)c2nc(Nc3ccc(C(=O)NC4CCC4)cc3OC)ncc2N(C)C1=O", "note": "[Compound I-119, 4-((S)-9-cyclopentyl-7-ethyl-6,7,8,9-tetrahydro-5-methyl-6-oxo-5H-pyrimido[4,5-b][1,4]diazepin-2-ylamino)-N-cyclobutyl-3-methoxybenzamide]", "Ki": "< 10"}, {"smiles": "COCCNC(=O)c1ccc(Nc2ncc3c(n2)N(C2CCCC2)CCC(=O)N3C)c(OC)c1", "note": "[Compound I-11, 4-(9-cyclopentyl-6,7,8,9-tetrahydro-5-methyl-6-oxo-5H-pyrimido[4,5-b][1,4]diazepin-2-ylamino)-3-methoxy-N-(2-methoxyethyl)benzamide]", "Ki": "< 10"}, {"smiles": "CC(=O)Nc1c(F)ccc(Nc2ncc3c(n2)N(C2CCCC2)CC(C)(C)C(=O)N3C)c1F", "note": "[Compound I-165, N-(3-(9-cyclopentyl-6,7,8,9-tetrahydro-5,7,7-trimethyl-6-oxo-5H-pyrimido[4,5-b][1,4]diazepin-2-ylamino)-2,6-difluorophenyl)acetamide]", "Ki": "10 to 100"}, {"smiles": "COc1cc(C(=O)Nc2cccnc2OC)ccc1Nc1ncc2c(n1)N(C1CCCC1)CC(C)(C)C(=O)N2C", "note": "[Compound I-228, 4-(9-cyclopentyl-5,7,7-trimethyl-6-oxo-6,7,8,9-tetrahydro-5H-pyrimido[4,5-b][1,4]diazepin-2-ylamino)-3-methoxy-N-(2-methoxypyridin-3-yl)benzamide]", "Ki": "< 10"}, {"smiles": "COc1cc(C(=O)Nc2cccnc2)ccc1Nc1ncc2c(n1)N(C1CCCC1)CC(C)(C)C(=O)N2C", "note": "[Compound I-207, 4-(9-cyclopentyl-5,7,7-trimethyl-6-oxo-6,7,8,9-tetrahydro-5H-pyrimido[4,5-b][1,4]diazepin-2-ylamino)-3-methoxy-N-(pyridin-3-yl)benzamide]", "Ki": "< 10"}, {"smiles": "COc1cc(C(=O)NN2CCCC2)ccc1Nc1ncc2c(n1)N(C1CCCC1)CC(C)(C)C(=O)N2C", "note": "[Compound I-206, 4-(9-cyclopentyl-5,7,7-trimethyl-6-oxo-6,7,8,9-tetrahydro-5H-pyrimido[4,5-b][1,4]diazepin-2-ylamino)-3-methoxy-N-(pyrrolidin-1-yl)benzamide]", "Ki": "< 10"}, {"smiles": "COc1cc(C(=O)NC2CCNCC2)ccc1Nc1ncc2c(n1)N(C1CCCC1)CC(C)(C)C(=O)N2C", "note": "[Compound I-101]", "Ki": "< 10"}, {"smiles": "CN1C(=O)C(C)(C)CN(C2CCCC2)c2nc(Nc3cccc(N4CCCC4=O)c3)ncc21", "note": "[Compound I-149, 2-(3-(2-oxopyrrolidin-1-yl)phenylamino)-9-cyclopentyl-8,9-dihydro-5,7,7-trimethyl-5H-pyrimido[4,5-b][1,4]diazepin-6(7H)-one]", "Ki": "10 to 100"}, {"smiles": "COc1cc(C(=O)NCC2CCCO2)ccc1Nc1ncc2c(n1)N(C1CCCC1)CC(C)(C)C(=O)N2C", "note": "(centres unmarked) [Compound I-194, 4-(9-cyclopentyl-5,7,7-trimethyl-6-oxo-6,7,8,9-tetrahydro-5H-pyrimido[4,5-b][1,4]diazepin-2-ylamino)-3-methoxy-N-((tetrahydrofuran-2-yl)methyl)benzamide]", "Ki": "< 10"}, {"smiles": "COc1cc(C(=O)Nc2cc(C)[nH]n2)ccc1Nc1ncc2c(n1)N(C1CCCC1)CC(C)(C)C(=O)N2C", "note": "[Compound I-231, 4-(9-cyclopentyl-5,7,7-trimethyl-6-oxo-6,7,8,9-tetrahydro-5H-pyrimido[4,5-b][1,4]diazepin-2-ylamino)-3-methoxy-N-(5-methyl-1H-pyrazol-3-yl)benzamide]", "Ki": "< 10"}, {"smiles": "CNC(=O)c1ccc(Nc2ncc3c(n2)N(CC2CC2)CC(C)(C)C(=O)N3C)c(OC)c1", "note": "[Compound I-58, 4-(9-(cyclopropylmethyl)-6,7,8,9-tetrahydro-5,7,7-trimethyl-6-oxo-5H-pyrimido[4,5-b][1,4]diazepin-2-ylamino)-3-methoxy-N-methylbenzamide]", "Ki": "< 10"}, {"smiles": "COc1cc(C(=O)N2CC(F)(C3CC3)C2)ccc1Nc1ncc2c(n1)N(C1CCCC1)CC(C)(C)C(=O)N2C", "note": "[Compound I-208, 9-cyclopentyl-2-(4-(3-cyclopropyl-3-fluoroazetidine-1-carbonyl)-2-methoxyphenylamino)-5,7,7-trimethyl-8,9-dihydro-5H-pyrimido[4,5-b][1,4]diazepin-6(7)-one]", "Ki": "< 10"}, {"smiles": "CCOc1cc(C(=O)NC2CCN(C)CC2)ccc1Nc1ncc2c(n1)N(C1CCCC1)CC(C)(C)C(=O)N2C", "note": "[Compound I-74, 4-(9-cyclopentyl-6,7,8,9-tetrahydro-5,7,7-trimethyl-6-oxo-5H-pyrimido[4,5-b][1,4]diazepin-2-ylamino)-3-ethoxy-N-(1-methylpiperidin-4-yl)benzamide]", "Ki": "< 10"}, {"smiles": "CNC(=O)c1ccc(Nc2ncc3c(n2)N(C2CCCC2)CCC(=O)N3C)c(OC)c1", "note": "[Compound I-9, 4-(9-cyclopentyl-6,7,8,9-tetrahydro-5-methyl-6-oxo-5H-pyrimido[4,5-b][1,4]diazepin-2-ylamino)-3-methoxy-N-methylbenzamide]", "Ki": "< 10"}, {"smiles": "COc1cc(C(=O)NCCF)ccc1Nc1ncc2c(n1)N(C1CCCC1)CC(C)(C)C(=O)N2C", "note": "[Compound I-279, 4-(9-cyclopentyl-5,7,7-trimethyl-6-oxo-6,7,8,9-tetrahydro-5H-pyrimido[4,5-b][1,4]diazepin-2-ylamino)-N-(2-fluoroethyl)-3-methoxybenzamide]", "Ki": "< 10"}, {"smiles": "COc1cc(C(=O)NC2CCCCC2)ccc1Nc1ncc2c(n1)N(C1CCCC1)CC(C)(C)C(=O)N2C", "note": "[Compound I-133, 4-(9-cyclopentyl-6,7,8,9-tetrahydro-5,7,7-trimethyl-6-oxo-5H-pyrimido[4,5-b][1,4]diazepin-2-ylamino)-N-cyclohexyl-3-methoxybenzamide]", "Ki": "< 10"}, {"smiles": "COc1cc(C(=O)NC2CCCC2)ccc1Nc1ncc2c(n1)N(C1CCCC1)C[C@@H](C)C(=O)N2C", "note": "[Compound I-185, (R)—N-cyclopentyl-4-(9-cyclopentyl-5,7-dimethyl-6-oxo-6,7,8,9-tetrahydro-5H-pyrimido[4,5-b][1,4]diazepin-2-ylamino)-3-methoxybenzamide]", "Ki": "< 10"}]}]}
